According to US20130101634A1, “COMPOSITIONS AND METHODS FOR REDUCING MICROBIAL OVERGROWTH IN THE SMALL INTESTINES” (DEERLAND ENZYMES, INC., priority 2011, published 2013):

Assays:
[1] = test system: E. coli; assay: Growth curve (O.D. 600 over time) in nutrient broth; format: cell-based; settings: 1 mg/ml in nutrient broth, alone or with 1 mg/ml EDTA or citrate, 37° C., FIGS. 1, 3, 5
Procedure: (§1) Growth Curves Since bacteria grow exponentially, it is useful to plot the logarithm of the relative population size [y=ln(NIN0)] against time. Frozen permanents of each strain were streaked for single colonies using nutrient agar plates warmed prior to use. Single bacterial cells were restreaked on a nutrient agar plate at 37° C. for 24 h to 72 h depending on strain. Cells of several well-grown colonies on the plate were added to 50 ml of nutrient broth with shaking at 37° C. until the culture reached the desired optical density. Ingredients of interest were slowly added while stirring at 37° C. […] Samples were taken at various time points and the optical density of the culture was obtained at 600 nm. All experiments were replicated twice.

[2] = test system: Bacteroides fragilis; assay: as above; format: cell-based; settings: 1 mg/ml in nutrient broth, alone or with 1 mg/ml EDTA, 37° C., FIGS. 2, 4, 6
Procedure: as §1

Substance	cell growth (O.D. 600 as a function of time) [1]	cell growth (O.D. 600 as a function of time) [2]
lysozyme	cell growth is not totally eliminated and cell culture will recover	cell growth is not totally eliminated and cell culture will recover
nisin	cell growth is not totally eliminated and cell culture will recover	cell growth is not totally eliminated and cell culture will recover
